Measurements from US4225595A, “Piperazine phosphates and phosphonate insecticides” (priority 1979, dated 1980).

Legend:
[1] = system: Green Peach Aphid [Myzus persicae (Sulzer)]; experiment: Green Peach Aphid (GPA) plant spray assay; format: in vivo; settings: spray on infested radish plants, three days
Excerpt: (§1) Screening was initiated at a maximal concentration level believed to be injurious to the insect population. The initial level should not be understood as representing a maximum at which a viable test for insecticidal activity can be conducted.
(§2) Nasturtium plants, Tropaeolum sp., approximately five centimeters (cm) high were transplanted into sandy loam soil in three-inch clay pots. Each pot was infested with 25-50 black bean aphids of mixed ages. Twenty-four hours later the pots were sprayed to the point of run-off with 50--50 acetone-water solutions of the test compounds.
(§3) Mortality rates were recorded after the infested plants had been held in the greenhouse for three days. Test concentrations ranged from 0.05% down to that at which 50% mortality occurs. Green Peach Aphid [Myzus persicae (Sulzer)], (GPA)
(§4) The insecticidal properties were tested in the same manner as for black beam aphids with the substitution of the nasturtiums by radish plants, Rhaphanus sativus. German Cockroach [Blatella germanica (Linne)], (GR)--Direct Spray
(§5) A less than 50% mortality rate at the initial concentration is indicated by a "greater than" sign (>). An approximately 50% mortality rate is indicated by the initial concentration rate. Other results are the dilutions at which an LD50 was achieved.

[2] = system: Saltmarsh Caterpillar [Estigmene acrea (Drury)]; experiment: Saltmarsh Caterpillar (SMC) leaf dip assay; format: in vivo; settings: curly dock leaves, second-instar larvae, 48 hours + 5 days
Procedure: as §1
(§6) The species was treated in the same manner as the German cockroach. The cages contained one string beam pod and 10 adult Lygus bugs. The percent mortality was recorded 48 hours later. Test concentrations ranged from 0.05% down to that at which approximately 50% mortality occurs. Saltmarsh Caterpillar [Estigmene acrea (Drury)], (SMC)--Leaf Dip Assay
(§7) Test compounds were diluted in a 50--50 acetone-water solution. Approximately 1×1.5 inch sections of curly dock (Rumex crispus) leaves were immersed in the test solution for 2-3 seconds. After drying on a wire screen, the leaves were placed in petri dishes containing a moistened piece of filter paper. Each dish was infested with 5 secondinstar saltmarsh larvae.
(§8) Mortality of the larvae was recorded 48 hours later. A piece of synthetic media was added to the dishes containing surviving larvae. The larvae were then observed for 5 additional days for delayed effects of the test compounds. Test concentrations ranged from 0.05% down to that at which approximately 50% mortality occurs. Cabbage Looper [Trichoplusia ni (Hubner)], (CL)
as §5

[3] = system: Southern House Mosquito Larvae (Culex pipiens quinquefasciatus); experiment: Southern House Mosquito larvae (M) assay, mortality 48 hours after treatment; format: in vivo; settings: third-instar larvae in aqueous solution, initial 1 ppm, read-out: LD50 M
Procedure: as §1
Tobacco budworms were tested in the same manner as the cabbage looper. Romaine lettuce (Latuca sativa) leaves provided the substrate. Southern House Mosquito Larvae (Culex pipiens quinquefasciatus), (M)
Ten third-instar larvae were placed in a six ounce wax paper cup containing 100 ml of an aqueous solution of the test compounds at a concentration of 1 ppm. The treated larvae were stored at 70° F. (21.5° C.) and mortality was recorded 48 hours after treatment. Two-Spotted Mite [Tetranychus urticae (Koch)], (2SM)
as §5

[4] = system: Two-Spotted Mite [Tetranychus urticae (Koch)]; experiment: Two-Spotted Mite (2SM) plant dip assay, mortality seven days later; format: in vivo
Excerpt: (§9) Screening was initiated at a maximal concentration level believed to be injurious to the insect population. The initial level should not be understood as representing a maximum at which a viable test for insecticidal activity can be conducted. […]
Pinto bean plants (Phaseolus vulgaris) approximately 10 cm high were transplanted into sandy loam soil in three-inch clay pots. The plants were thoroughly infested with two-spotted mites of mixed ages and sexes. Twenty-four hours after infestation the plants were inverted and dipped for 2-3 seconds in 50--50 acetone-water solutions of the test compounds.
Mortality ratings for both adult mites and nymphs hatching after treatment were taken seven days later. Test concentrations ranged from 0.05% down to that at which 50% mortality occurs.
as §5

[5] = system: German Cockroach [Blatella germanica (Linne)]; experiment: German Cockroach (GR) direct spray, mortality 7 days later; format: in vivo; settings: one-month-old nymphs, initial 0.1%
Procedure: as §1
(§10) Mobile insects, such as houseflies, German cockroaches, Lygus bugs, were contained for treatment in circular cardboard cages covered with cellophane on the bottom and tulle netting on the top.
as §4
(§11) Test compounds were diluted in a 50--50 acetonewater solution. Two cubic centimeters (cc) of the compound solutions were sprayed through a DeVilbiss type EGA hand spray gun into cages each containing 10 one-month-old German cockroach nymphs.
The percent mortality was recorded 7 days later. Test concentrations ranged from 0.1% down to that at which approximately 50% mortality occurs.
as §5

[6] = system: Tobacco Budworm [Heliothis virescens (Fabricius)]; settings: leaf dip, Romaine lettuce leaves
Procedure: Mortality of the larvae was recorded 48 hours later. A piece of synthetic media was added to the dishes containing surviving larvae. […] Test concentrations ranged from 0.05% down to that at which approximately 50% mortality occurs.

[7] = system: Black Bean Aphid [Aphis fabae (Scop.)]; experiment: Black Bean Aphid (BBA) plant spray assay, mortality after three days; format: in vivo; settings: spray on infested nasturtium plants
Excerpt: as §9, §2, §3, §5

[8] = system: Lygus Bug [Lygus hesperus (Knight)]; experiment: Lygus Bug (LB) direct spray assay, mortality 48 hours later; format: in vivo; settings: adults, initial 0.05%
Procedure: as §1, §10, §11
Lygus Bug [Lygus hesperus (Knight)], (LB)--Direct Spray Assay
as §6, §5

[9] = system: Cabbage Looper [Trichoplusia ni (Hubner)]; experiment: Cabbage Looper (CL) leaf dip assay; format: in vivo; settings: squash cotyledons, initial 0.1%
Procedure: as §1, §7, §8
The effectiveness of the compounds was tested in the same manner as for the saltmarsh caterpillar with two exceptions. Cotyledons of hyzini squash (Calabacita abobrinha, were substituted for curly dock leaves and the initial test concentration was 0.1%. Tobacco Budworm [Heliothis virescens (Fabricius)], (TBW)
as §5

[10] = system: Housefly [Musca domestica (Linn.)]; settings: topical, 48 h
Procedure: Housefly [Musca domestica (Linn.)], (HF)--Contact Residue Assay
Test compounds were diluted in acetone and aliquots were pipetted onto the bottom of 55×15 millimeter (mm) aluminum dishes. One ml of acetone containing 0.02% peanut oil was added to each dish to insure even spreading. After all solvents had evaporated the dishes were placed in cages each containing 25 one to two day old female houseflies. Each cage contained a sugar-water cotton plug for sustanence of the flies.
Mortality rates were recorded after 48 hours. Test levels ranged from 10 μ/25 .female. houseflies down to that at which approximately 50% mortality occurs.

CCOP(=O)(OCC)SCC(=O)N1CCN(C(=O)SC)CC1 [Compound 28, 1-N-methylthiocarbo-4-N-O,O-diethylphosphoromonothioylacetyl piperazine]
LD50 GPA [1]: .008% | LD50 SMC [2]: > .05% | LC50 [3]: > 1 µg/mL | LD50 2SM Adults ([4]; adult mites): < .05% | LD50 2SM Eggs ([4]; eggs (nymphs hatching after treatment)): < .05% | LD50 GR [5]: > .1% | LD50 TBW [6]: > .1% | LD50 BBA [7]: .0002% | LD50 LB [8]: > .05% | LD50 CL [9]: > .1% | LD50 HF [10]: > 10 μg/25
